The record followed here is ChEMBL document CHEMBL5360568, “Synthesis and anti-Alzheimer potential of novel α-amino phosphonate derivatives and probing their molecular interaction mechanism with acetylcholinesterase” (Eur J Med Chem, 2023).

The source made the active and inactive calls. The calls are words filed in the database; no cut-off is given here.

Data set [1] is described as follows: Antioxidant activity assessed as ABTS radical scavenging activity incubated for 30 mins by spectrophotometric analysis. The class given is functional.
Data set [2] has as its target T1, Acetylcholinesterase (Electrophorus electricus, UniProt O42275). The data set is described as follows: Inhibition of electric eel AChE using acetylthiocholine iodide as substrate preincubated for 5 mins followed by substrate addition by DTNB based Ellman's method.
The next data set concerns Supercoiled DNA. The data set is described as follows: Induction of supercoiled pBR322 plasmid DNA (unknown origin) cleavage assessed as DNA nicking at 10 uM incubated for 2 hrs by Agarose gel electrophoresis analysis. The class given is nucleic-acid assay.
For data set [3], the target named is Acetylcholinesterase (Electrophorus electricus) (UniProt O42275). The data set can be described thus: Mixed type inhibition of electric eel AChE using acetylthiocholine iodide as substrate assessed as decrease in Vmax and increase in Km preincubated for 5 mins followed by substrate addition and measured after 5 mins by Ellman's method based double reciprocal Lineweaver-Burk plot analysis. The settings on record: time 10.0 min.

The target in data set [4] is T2, Acetylcholinesterase (Homo sapiens, UniProt P22303). The data set can be described thus: Binding affinity to AChE (unknown origin) assessed as gibbs free energy change at temperature of 298 K at 0.001 to 0.009 mM incubated for 5 mins by fluorescence quenching analysis. Conditions: dose 0.001-0.009 mM.
The target in data set [5] is T1, Acetylcholinesterase. The data set is described as follows: Mixed type inhibition of electric eel AChE using acetylthiocholine iodide as substrate assessed as inhibition constant of second plot of intercept preincubated for 5 mins followed by substrate addition and measured after 5 mins by Ellman's method based double reciprocal Lineweaver-Burk plot analysis. In general terms: Ellman's reagent forms a yellow product with free thiols.

Data set [6] deals with T2, Acetylcholinesterase. The data set is described as follows: Binding affinity to AChE (unknown origin) assessed as decrease in negative bands intensity towards the baseline at […] incubated for 5 mins by Circular dichroism analysis. The settings on record: dose lower 0.001 nM. On the technique in general: CD spectra are sensitive to the conformation of chiral molecules.

The target of data set [7] is Amyloid-beta precursor protein (Homo sapiens) (UniProt P05067). The data set is described as follows: Modulation of amyloid beta (1 to 42) (unknown origin) assembly assessed as morphological changes in amyloid beta (1 to 42) aggregates at 1 mM incubated for 3 days by FE-SEM image analysis relative to control. The settings on record: filed as modulator, time 3.0 day.

The nature of data set [8]: Cytotoxicity against human SK-N-SH cells assessed as cell viability at 30 to 60 uM incubated for 24 hrs by MTT assay. The class given is toxicity, cell-based. The settings on record: dose 30-60 µM, read-out: Activity. For orientation: Formazan colour is commonly taken as a measure of viable cells.
The subject of data set [9] is SK-N-SH. The data set can be described thus: Neuroprotective activity against H2O2 induced oxidative cell damage in human SK-N-SH cells assessed as increase in cell viability at 90 uM preincubated for 3 hrs followed by H2O2 stimulation for 2 hrs by MTT assay (Rvb= 40%). The class given is functional.
A short description of data set [10]: Selectivity ratio, ratio of IC50 for inhibition of equine serum BuChE to IC50 for inhibition of electric eel AChE.
Data set [11] concerns the target T2, Acetylcholinesterase. The data set is described as follows: Binding affinity to AChE (unknown origin) assessed as reduction in intrinsic fluorescence intensity at pH 7.2 at 0.001 to 0.009 mM incubated for 5 mins by fluorescence quenching analysis. Conditions: dose 0.001-0.009 mM.
For data set [12], the target named is T2, Acetylcholinesterase. The data set can be described thus: Binding affinity to AChE (unknown origin) assessed as static fluorescence quenching at pH 7.2 at 0.001 to 0.009 mM incubated for 5 mins by Stern-Volmer quenching plot based fluorescence spectroscopy. The settings on record: dose 0.001-0.009 mM.
For data set [13], the target named is T1, Acetylcholinesterase. The data set is described as follows: Mixed type inhibition of electric eel AChE using acetylthiocholine iodide as substrate assessed as inhibition constant of second plot of slope preincubated for 5 mins followed by substrate addition and measured after 5 mins by Ellman's method based double reciprocal Lineweaver-Burk plot analysis.

In another data set the target is Cholinesterase (Equus caballus, UniProt P81908). The data set can be described thus: Inhibition of equine serum BuChE using butyrylthiocholine iodide as substrate preincubated for 5 mins followed by substrate addition by DTNB based Ellman's method.
Data set [14] addresses Amyloid-beta precursor protein (Homo sapiens) (UniProt P05067). The data set is described as follows: Modulation of amyloid beta (1 to 42) (unknown origin) self aggregation assessed as increase in fluorescence intensity at 0.03 to 0.1 uM incubated for 24 hrs by Thioflavin T fluorescence assay. Conditions: filed as modulator, dose 0.03-0.1 µM.
Data set [15] has as its target T2, Acetylcholinesterase. The data set can be described thus: Inhibition of human erythrocyte AChE using acetylthiocholine iodide as substrate preincubated for 5 mins followed by substrate addition by DTNB based Ellman's method.
Data set [16] concerns SK-N-SH. The data set is described as follows: Neuroprotective activity against H2O2 induced oxidative cell damage in human SK-N-SH cells assessed as increase in cell viability at 30 to 60 uM preincubated for 3 hrs followed by H2O2 stimulation for 2 hrs by MTT assay (Rvb= 40%). Conditions: dose 30-60 µM. The data set is classed as functional, cell-based.

T2 sequence (P22303 whole entry): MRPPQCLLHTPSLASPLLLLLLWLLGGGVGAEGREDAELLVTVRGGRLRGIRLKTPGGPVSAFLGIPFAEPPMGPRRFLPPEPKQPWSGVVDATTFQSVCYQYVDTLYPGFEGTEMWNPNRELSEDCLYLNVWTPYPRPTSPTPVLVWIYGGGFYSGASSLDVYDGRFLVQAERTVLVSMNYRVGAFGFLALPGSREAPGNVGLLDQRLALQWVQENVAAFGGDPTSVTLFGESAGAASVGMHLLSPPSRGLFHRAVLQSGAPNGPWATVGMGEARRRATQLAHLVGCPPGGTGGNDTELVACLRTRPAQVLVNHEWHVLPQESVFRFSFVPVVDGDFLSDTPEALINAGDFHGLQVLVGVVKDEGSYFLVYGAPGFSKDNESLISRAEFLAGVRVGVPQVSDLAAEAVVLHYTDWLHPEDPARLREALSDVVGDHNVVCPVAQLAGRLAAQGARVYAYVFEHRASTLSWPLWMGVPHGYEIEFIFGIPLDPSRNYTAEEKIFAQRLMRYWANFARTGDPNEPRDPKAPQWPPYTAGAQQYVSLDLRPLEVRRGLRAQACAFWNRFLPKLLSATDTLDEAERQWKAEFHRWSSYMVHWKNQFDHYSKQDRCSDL
T1 sequence (O42275 whole entry): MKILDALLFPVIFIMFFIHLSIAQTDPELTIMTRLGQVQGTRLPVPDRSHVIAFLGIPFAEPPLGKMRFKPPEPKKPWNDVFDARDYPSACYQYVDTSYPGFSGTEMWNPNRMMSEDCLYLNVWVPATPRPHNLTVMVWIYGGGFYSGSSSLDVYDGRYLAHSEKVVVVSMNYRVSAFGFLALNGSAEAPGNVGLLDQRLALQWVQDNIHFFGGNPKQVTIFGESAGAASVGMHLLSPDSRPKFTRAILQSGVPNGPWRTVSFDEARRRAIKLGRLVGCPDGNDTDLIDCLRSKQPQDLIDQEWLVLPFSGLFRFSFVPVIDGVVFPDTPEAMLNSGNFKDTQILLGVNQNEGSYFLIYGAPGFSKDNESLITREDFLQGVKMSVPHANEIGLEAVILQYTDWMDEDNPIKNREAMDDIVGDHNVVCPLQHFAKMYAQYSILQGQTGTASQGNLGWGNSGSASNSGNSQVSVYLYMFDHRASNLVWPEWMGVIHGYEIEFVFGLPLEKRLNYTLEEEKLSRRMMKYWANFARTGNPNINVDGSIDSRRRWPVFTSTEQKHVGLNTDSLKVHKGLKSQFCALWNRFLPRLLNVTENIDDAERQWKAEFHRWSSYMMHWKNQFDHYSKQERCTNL
Sequence of Amyloid-beta precursor protein (Homo sapiens) (P05067 whole entry): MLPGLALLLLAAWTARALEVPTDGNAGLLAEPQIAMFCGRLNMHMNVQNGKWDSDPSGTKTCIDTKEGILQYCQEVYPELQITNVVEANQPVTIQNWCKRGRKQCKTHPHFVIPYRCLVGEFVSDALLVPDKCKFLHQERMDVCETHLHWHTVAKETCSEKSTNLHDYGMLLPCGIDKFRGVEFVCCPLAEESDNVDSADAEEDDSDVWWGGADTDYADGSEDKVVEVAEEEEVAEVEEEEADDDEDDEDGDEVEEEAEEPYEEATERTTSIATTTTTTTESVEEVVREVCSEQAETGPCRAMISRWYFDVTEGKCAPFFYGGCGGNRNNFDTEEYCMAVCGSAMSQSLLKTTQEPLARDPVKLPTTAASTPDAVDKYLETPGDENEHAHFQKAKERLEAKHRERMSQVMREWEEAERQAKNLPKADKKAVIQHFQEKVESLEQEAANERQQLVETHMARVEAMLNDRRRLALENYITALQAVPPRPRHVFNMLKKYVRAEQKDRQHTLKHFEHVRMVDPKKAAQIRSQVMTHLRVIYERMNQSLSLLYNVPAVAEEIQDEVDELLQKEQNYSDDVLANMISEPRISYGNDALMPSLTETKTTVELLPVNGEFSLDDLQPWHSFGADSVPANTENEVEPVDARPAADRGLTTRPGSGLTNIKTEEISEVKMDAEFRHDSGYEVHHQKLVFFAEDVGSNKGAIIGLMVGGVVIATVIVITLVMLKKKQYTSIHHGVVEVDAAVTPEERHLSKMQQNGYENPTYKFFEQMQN
Sequence of Acetylcholinesterase (Electrophorus electricus) (O42275 24-633 limits assumed): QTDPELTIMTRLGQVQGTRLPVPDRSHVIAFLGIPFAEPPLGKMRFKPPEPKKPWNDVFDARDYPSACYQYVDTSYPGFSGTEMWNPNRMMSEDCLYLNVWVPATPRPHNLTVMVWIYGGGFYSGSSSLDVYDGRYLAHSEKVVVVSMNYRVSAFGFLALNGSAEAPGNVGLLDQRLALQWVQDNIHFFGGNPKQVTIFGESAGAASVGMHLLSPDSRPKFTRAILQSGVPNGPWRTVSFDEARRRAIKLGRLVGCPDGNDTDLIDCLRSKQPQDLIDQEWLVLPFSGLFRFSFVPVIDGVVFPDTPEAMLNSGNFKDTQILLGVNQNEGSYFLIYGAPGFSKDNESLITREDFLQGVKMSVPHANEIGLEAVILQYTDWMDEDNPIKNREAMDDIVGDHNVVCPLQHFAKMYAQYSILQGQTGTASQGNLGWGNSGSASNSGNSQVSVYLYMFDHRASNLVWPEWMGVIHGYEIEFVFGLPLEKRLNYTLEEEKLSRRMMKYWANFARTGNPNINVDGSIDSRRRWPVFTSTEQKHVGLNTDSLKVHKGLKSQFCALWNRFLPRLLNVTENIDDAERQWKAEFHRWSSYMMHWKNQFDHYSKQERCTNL
Sequence of Cholinesterase (P81908 whole entry): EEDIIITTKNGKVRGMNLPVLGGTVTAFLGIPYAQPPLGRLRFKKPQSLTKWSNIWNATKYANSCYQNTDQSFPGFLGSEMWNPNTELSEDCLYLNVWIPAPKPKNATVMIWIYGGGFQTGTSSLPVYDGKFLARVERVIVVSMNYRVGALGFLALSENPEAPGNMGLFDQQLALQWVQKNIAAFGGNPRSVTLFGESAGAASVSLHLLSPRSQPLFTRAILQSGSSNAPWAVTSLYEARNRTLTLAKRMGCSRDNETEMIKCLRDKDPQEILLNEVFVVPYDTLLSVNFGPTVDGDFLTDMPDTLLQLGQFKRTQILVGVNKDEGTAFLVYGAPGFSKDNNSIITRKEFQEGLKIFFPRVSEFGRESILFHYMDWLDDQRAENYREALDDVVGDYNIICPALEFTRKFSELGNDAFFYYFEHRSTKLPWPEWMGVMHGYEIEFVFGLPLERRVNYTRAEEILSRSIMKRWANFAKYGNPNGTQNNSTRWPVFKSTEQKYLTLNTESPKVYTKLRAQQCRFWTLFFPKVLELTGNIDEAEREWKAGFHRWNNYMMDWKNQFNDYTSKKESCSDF

On to `CCOP(=O)(OCC)C(Nc1ccc(C(=O)O)cc1)c1ccc(OCc2nc3ccccc3c(=O)n2-c2ccc(F)cc2)c(OC)c1` (stereo not drawn), for which the half-inhibitory concentration (IC50) came out at 30.1 µM in data set [1], 0.289 µM against Acetylcholinesterase [2], 20.2 µM on Cholinesterase and 1.16 µM against Acetylcholinesterase [15]. The outcome in the data set with Supercoiled DNA was inactive. In addition, the inhibition entry in data set [3] is “Active”. Also, the deltaG on Acetylcholinesterase [4] is -7.54 kcal/mol. For the same compound, the Ki came to 0.292 µM on Acetylcholinesterase [5] and 0.297 µM at Acetylcholinesterase [13]. Moreover, the Activity entry was “Dose-Dependent Effect” at Acetylcholinesterase [6], 65% in the data set with SK-N-SH [9] and “Dose-Dependent Effect” at Acetylcholinesterase [11]. In addition, the result (in data set [7]; at Acetylcholinesterase [12]; in data set [14]; in the data set with SK-N-SH [16]) was Active. Also, the viability at 24 h, up to 60 µM in data set [8] was over 90%. In data set [10], the Ratio IC50 came out at 70.1.

In general, IC50 refers to the concentration that inhibits the measured activity by half. A word on the Ki: it is the dissociation constant of the complex between target and ligand, obtained from inhibition or displacement.
